Molecular target: T1, RORc ligand binding domain (Homo sapiens, UniProt P51449)
T1 construct: host or cells: E. coli
T1 sequence (P51449 269-508 limits assumed): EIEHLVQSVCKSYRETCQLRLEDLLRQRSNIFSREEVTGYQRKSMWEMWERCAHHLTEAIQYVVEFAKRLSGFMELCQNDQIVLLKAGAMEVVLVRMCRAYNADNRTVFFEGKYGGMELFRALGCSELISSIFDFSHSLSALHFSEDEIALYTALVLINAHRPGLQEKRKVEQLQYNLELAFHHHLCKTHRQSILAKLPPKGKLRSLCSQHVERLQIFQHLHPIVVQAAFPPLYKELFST
Test: In vitro RORc ligand binding assay (25-[3H]hydroxycholesterol displacement, filter binding)
Settings: 6 nM 25-[3H]hydroxycholesterol, 0.6 ug/mL RORc receptor, 3 h at 25° C.
Summary of the method: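 Filter-binding displacement of 6 nM 25-[3H]hydroxycholesterol from RORc receptor (0.6 ug/mL) in 50 mM HEPES pH 7.4, 150 mM NaCl, 5 mM MgCl2, 1 mM DTT, 0.01% BSA, 5% DMSO; 3 h at 25° C. NSB defined with 1 uM 25-hydroxycholesterol; scintillation counting gave Kiapp, IC50 or % inhibition (screening at 1 and 10 uM).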

IC50 [nM]	SMILES
284	CC1(C)[C@@H]2CC[C@@]1(COCc1ccc(C(=O)O)cc1)c1nnc(-c3ccccc3F)cc12 [Example 71, 4-({[(5S,8S)-3-(2-fluorophenyl)-9,9-dimethyl-6,7-dihydro-5,8-methanocinnolin-8(5H)-yl]methoxy}methyl) benzoic acid]
1120	CC1(C)[C@@H]2CC[C@@]1(C(=O)NCC(F)F)c1nnc(-c3ccccc3F)cc12 [Example 130, (5S,8S)-N-(2,2-difluoroethyl)-3-(2-fluorophenyl)-9,9-dimethyl-5,6,7,8-tetrahydro-5,8-methanocinnoline-8-carboxamide]
1370	Cc1nnc(NC[C@@]23CC[C@@H](c4cc(-c5c(F)cccc5F)nnc42)C3(C)C)o1 [Example 144, N-(((5R,8S)-3-(2,6-difluorophenyl)-9,9-dimethyl-5,6,7,8-tetrahydro-5,8-methanocinnolin-8-yl)methyl)-5-methyl-1,3,4-oxadiazol-2-amine]
85	CC1(C)[C@H]2CC[C@]1(Cc1ncon1)c1nnc(-c3c(F)cccc3F)cc12 [Example 57, (5R,8R)-3-(2,6-difluorophenyl)-9,9-dimethyl-8-(1,2,4-oxadiazol-3-ylmethyl)-5,6,7,8-tetrahydro-5,8-methanocinnoline]
171	CC1(C)[C@H]2CC[C@]1(N1CCNC1=O)c1nnc(-c3c(F)cccc3F)cc12 [Example 184, 1-((5R,8R)-3-(2,6-difluorophenyl)-9,9-dimethyl-5,6,7,8-tetrahydro-5,8-methanocinnolin-8-yl)imidazolidin-2-one]
67	Cc1nnc(N(CCO)C[C@@]23CC[C@@H](c4cc(-c5c(F)cccc5F)nnc42)C3(C)C)o1 [Example 155, 2-((((5R,8S)-3-(2,6-difluorophenyl)-9,9-dimethyl-5,6,7,8-tetrahydro-5,8-methanocinnolin-8-yl)methyl)(5-methyl-1,3,4-oxadiazol-2-yl)amino)ethanol]
196	CC1(C)[C@@H]2CC[C@@]1(C(=O)N1CCC3CC31)c1nnc(-c3c(F)cccc3F)cc12 (stereo partly drawn) [Example 223, 2-azabicyclo[3.1.0]hexan-2-yl((5S,8S)-3-(2,6-difluorophenyl)-9,9-dimethyl-5,6,7,8-tetrahydro-5,8-methanocinnolin-8-yl)methanone]
103	C[C@@H]1COC(=O)N1C[C@@]12CC[C@@H](c3cc(-c4c(F)cccc4F)nnc31)C2(C)C [Example 294, (R)-3-(((5R,8S)-3-(2,6-difluorophenyl)-9,9-dimethyl-5,6,7,8-tetrahydro-5,8-methanocinnolin-8-yl)methyl)-4-methyloxazolidin-2-one]
28	CC(C)(O)[C@@]12CC[C@@H](c3cc(-c4c(F)cccc4F)nnc31)C2(C)C [Example 300, 2-((5R,8R)-3-(2,6-difluorophenyl)-9,9-dimethyl-5,6,7,8-tetrahydro-5,8-methanocinnolin-8-yl)propan-2-ol]
623	CC1(C)[C@H]2CC[C@]1(c1ccn(CCC#N)n1)c1nnc(-c3c(F)cccc3F)cc12 [Example 287]
1040	CN(C(=O)[C@]12CC[C@H](c3cc(-c4c(F)cccc4F)nnc31)C2(C)C)c1ccccn1 [Example 265, (5S,8S)-3-(2,6-difluorophenyl)-N,9,9-trimethyl-N-(pyridin-2-yl)-5,6,7,8-tetrahydro-5,8-methanocinnoline-8-carboxamide]
220	CC1(C)[C@@H]2CC[C@@]1(C(=O)N1CC3CC1C3)c1nnc(-c3c(F)cccc3F)cc12 [Example 214, 2-azabicyclo[2.1.1]hexan-2-yl((5S,8S)-3-(2,6-difluorophenyl)-9,9-dimethyl-5,6,7,8-tetrahydro-5,8-methanocinnolin-8-yl)methanone]
340	CC1(C)[C@H]2C=C[C@]1(C)c1nnc(-c3c(F)cccc3F)cc12 [Example 126, (5R,8S)-3-(2,6-difluorophenyl)-8,9,9-trimethyl-5,8-dihydro-5,8-methanocinnoline]

Reference: US9981916B2 (Genentech, Inc., priority 2013, dated 2018)
